Results taken from patent US11571484B2, “Compositions that target tumor-associated macrophages and methods of use therefor” (Sanford Burnham Prebys Medical Discovery Institute, priority 2017, dated 2023).
Ends that are not written are not given here. FAM = 5(6)-carboxyfluorescein; Ahx = NCCCCCC(=O)O

Tested on: MRC1/CD206-expressing tumor-associated macrophages (MEMs) in 4T1 tumors
Test: Free peptide homing and immunofluorescence in the orthotopic 4T1 breast tumor model
Conditions: 30 nmoles i.v.
Description: (SEQ ID NO: 5) control peptide were injected intravenously into 4T1 tumor-bearing mice and allowed to circulate for 2 h. Mice were then sacrificed and tumor and tissues were analyzed by immunofluorescence using rabbit anti-FAM (green) and rat anti-CD206 or rat anti-TIE2 (red) antibodies, and counterstained with DAPI. All images were taken under the same imaging conditions. FAM-UNO accumulated in macrophages within tumors and lymph nodes positive for CD206 staining (A, B, C) and TIE2 (D, and H: Blow up of D). […] To ascertain that anti-CD206 is capable of detecting CD206 in the liver, an image was acquired with longer exposure time from an uninjected animal (FIG. 25). […] Green: FAM-peptide; Red: CD206 or TIE2, Blue: DAPI. Representative fields from multiple sections prepared from at least 3 tumors (n≥3 mice) are shown.
Tumor models were induced according to protocols approved by the Estonian Ministry of Agriculture, Committee of Animal Experimentation (permit #48). For the 4T1 breast model, 8-week old female Balb/c mice were injected in the mammary fat pad with 10^6 cells dispersed in 50 μL of PBS. For homing studies, mice were used 10 days later, when the tumor had reached ˜150 mm^3. For MCF-7 breast model, 8-week old female nude mice were implanted with an estrogen pellet, and 1 week later inoculated with 5×10^6 MCF-7 cells in 100 μL of cold Matrigel (BD Biosciences, CA, USA). Mice were used for homing studies three weeks later (tumor volume˜150 mm^3). For the metastatic gastric carcinoma, 10^6 MKN45-P cells in PBS were injected intraperitoneally in 8-week old female nude mice. Mice were used for homing studies two weeks later. For the metastatic melanoma model, 2×10^5 B16F10 cells were injected intravenously in 100 μL of PBS in C57 BL6 mice. The mice were used for homing studies 10 days after. For the angiogenic glioblastoma model, WT-GBM 24, 7×10^5 cells were stereotactically injected in the right striatum of Fox/Nu mice 2 mm lateral and posterior of bregma of 2.5 mm deep. The mice were used for homing studies 6-7 days after the injection.
For free peptide homing studies, mice were injected intravenously with 30 nmoles of FAM-peptides in 100 μL of PBS. For nanoparticle homing studies-FAM-UNO—NP-PTX-, mice were injected intravenously in mice bearing MCF-7 breast tumors with 1 mg of Polymer in 100 μL pf PBS and allowed to circulate for 6 h. For tissue collection, the mice were anesthetized and the tissues collected and immediately placed in 4% cold PFA and left overnight at 4-C. Tissues were washed with PBS for 2 h at room temperature and cryoprotected with sucrose 15% at 4-C overnight and then in sucrose 30% at 4·C overnight. The tumor and the control organs were placed together in the same block with OCT compound (Leica Biosystems, Wetzlar, Germany), snap-frozen in isopentane, and sectioned at 10 μm. FAM was detected using Rabbit anti-FITC (Invitrogen, CA, USA. Catalog # A-889) at a dilution of 1/100 and using Alexa Fluor-546 anti-rabbit antibody (Invitrogen, Ca, USA. Catalog # A-11035) at a dilution of 1/200. CD31 was detected using rat anti-mouse CD31 (BD Biosciences, CA, USA. Catalog #: 553370), TIE2 was detected using rat anti-mouse TIE2 (Biolegend, CA, USA. Catalog #124001), CD209 was detected using rat anti-mouse CD209 (Biolegend, CA, USA. Catalog #147802), HLA ABC was detected using rat anti Human HLA ABC (Bio-Rad, CA, USA. Product code MCA485G), and CD206 was detected using ratanti-mouse CD206 (Bio-Rad, CA, USA. Product code MCA2235GA); using 1/100 primary antibody dilution and Alexa Fluor-647 anti-Rat antibody (Invitrogen, CA, USA. Catalog #21247) at 1/200 dilution. To quantify FAM signal from confocal images, the green channel of images taken by using 20× magnification objective was opened with ImageJ, converted to 8-bit grayscale and the integrated pixel intensity was measured. Different regions of tumors from three different mice were used.

Row | Substance | accumulation in MEMs / tumor homing (2 h circulation) | time the signal remained readily detectable in MEMs after administration | accumulation in liver, heart, lungs and spleen (2 h) | internalization in MEMs (high resolution confocal microscopy) (2 h) | overlap with CD209 in sections from 4T1 tumors (2 h) | cells positive for FAM-UNO that were also positive for CD206, in tumors (2 h circulation) | FAM fluorescence in the kidneys (2 h time point)
1 | FAM-CSPGAK: FAM-labeled linear CSPGAK (SEQ ID NO: 6) (not fully specified; FAM label) | accumulated in MEMs in orthotopic 4T1 breast tumor-bearing mice at levels comparable to FAM-UNO |  |  |  |  |  | 
2 | FAM-UNO: FAM-labeled UNO peptide CSPGAKVRC (SEQ ID NO: 1); 5(6)-carboxyfluorescein with 6-aminohexanoic acid spacer at the N-terminus ({FAM-Ahx}-CSPGAKVRC; cysteine pairing not given here) | accumulated in MEMs in tumors and in sentinel lymph nodes | up to 12 h | low | internalized in MEMs | only a moderate overlap with CD209 | 96% | FAM-fluorescence was observed in the kidneys
